# Key:
# [1] = biological target: Activin receptor type-1-like (Homo sapiens) (UniProt P37023); assay: Inhibition of wild-type human ACVRL1 (L164 to Q503 residues) expressed in bacterial expression system at 1 uM by Kinomescan method relative to control
# [2] = biological target: Serine/threonine-protein kinase PAK 4 (Homo sapiens) (UniProt O96013); assay: Inhibition of wild-type human partial length PAK4 (Q144 to R438 residues) expressed in bacterial expression system at 1 uM by Kinomescan method relative to control
# [3] = test system: Receptor-type tyrosine-protein kinase FLT3 (Homo sapiens), P36888 [D835H]; assay: Inhibition of human partial length FLT3 D835H mutant (V592 to Y969 residues) expressed in bacterial expression system at 1 uM by Kinomescan method relative to control
# [4] = biological target: Serine/threonine-protein kinase MARK1 (Homo sapiens) (UniProt Q9P0L2); assay: Inhibition of wild-type human partial length MARK1 (Q30 to T341 residues) expressed in bacterial expression system at 1 uM by Kinomescan method relative to control
# [5] = biological target: Citron Rho-interacting kinase (Homo sapiens) (UniProt O14578); assay: Inhibition of wild-type human partial length CIT (M68 to E432 residues) expressed in bacterial expression system at 1 uM by Kinomescan method relative to control
# [6] = biological target: Mitogen-activated protein kinase kinase kinase 2 (Homo sapiens) (UniProt Q9Y2U5); assay: Inhibition of wild-type human partial length MAP3K2 (S315 to H619 residues) expressed in mammalian expression system at 1 uM by Kinomescan method relative to control
# [7] = biological target: Serine/threonine-protein kinase Nek4 (Homo sapiens) (UniProt P51957); assay: Inhibition of wild-type human full length NEK4 (M1 to F841 residues) expressed in mammalian expression system at 1 uM by Kinomescan method relative to control
# [8] = biological target: Serine/threonine-protein kinase STK11 (Homo sapiens) (UniProt Q15831); assay: Inhibition of wild-type human full length LKB1 (M1 to Q433 residues) expressed in bacterial expression system at 1 uM by Kinomescan method relative to control
# [9] = test system: Epidermal growth factor receptor (Homo sapiens), P00533 [T790M]; assay: Inhibition of human partial length EGFR T790M mutant (R669 to G1022 residues) expressed in mammalian expression system at 1 uM by Kinomescan method relative to control
# [10] = biological target: Leucine-rich repeat serine/threonine-protein kinase 2 (Homo sapiens) (UniProt Q5S007); assay: Inhibition of wild-type human partial length LRRK2 (H970 to E2527 residues) expressed in mammalian expression system at 1 uM by Kinomescan method relative to control
# [11] = biological target: Cyclin-dependent kinase-like 2 (Homo sapiens) (UniProt Q92772); assay: Inhibition of wild-type human partial length CDKL2 (M1 to D327 residues) expressed in bacterial expression system at 10 uM by Kinomescan method relative to control
# [12] = biological target: Mitogen-activated protein kinase kinase kinase 9 (Homo sapiens) (UniProt P80192); assay: Inhibition of wild-type human partial length MLK1 (V88 to W426 residues) expressed in bacterial expression system at 10 uM by Kinomescan method relative to control
# [13] = biological target: Tyrosine-protein kinase JAK2 (Homo sapiens) (UniProt O60674); assay: Inhibition of wild-type human partial length JAK2 JH1 catalytic domain (A829 to G1132 residues) expressed in mammalian expression system at 10 uM by Kinomescan method relative to control
# [14] = biological target: LIM domain kinase 2 (Homo sapiens) (UniProt P53671); assay: Inhibition of wild-type human full length LIMK2 (M1 to P638 residues) expressed in bacterial expression system at 10 uM by Kinomescan method relative to control
# [15] = biological target: Serine/threonine-protein kinase PknB (Mycobacterium tuberculosis) (UniProt P9WI81); assay: Inhibition of wild-type Mycobacterium tuberculosis partial length PKNB (M1 to G279 residues) expressed in mammalian expression system at 10 uM by Kinomescan method relative to control
# [16] = biological target: Mitogen-activated protein kinase 15 (Homo sapiens) (UniProt Q8TD08); assay: Inhibition of wild-type human partial length ERK8 (M1 to P437 residues) expressed in bacterial expression system at 10 uM by Kinomescan method relative to control
# [17] = biological target: Myosin light chain kinase, smooth muscle (Homo sapiens) (UniProt Q15746); assay: Inhibition of wild-type human full length MYLK (M854 to E1845 residues) expressed in mammalian expression system at 10 uM by Kinomescan method relative to control
# [18] = biological target: Macrophage-stimulating protein receptor (Homo sapiens) (UniProt Q04912); assay: Inhibition of wild-type human partial length MST1R (I1057 to L1363 residues) expressed in bacterial expression system at 10 uM by Kinomescan method relative to control
# [19] = biological target: Non-receptor tyrosine-protein kinase TYK2 (Homo sapiens) (UniProt P29597); assay: Inhibition of wild-type human partial length TYK2 JH1 catalytic domain (V877 to C1187 residues) expressed in mammalian expression system at 10 uM by Kinomescan method relative to control
# [20] = biological target: Serine/threonine-protein kinase ULK2 (Homo sapiens) (UniProt Q8IYT8); assay: Inhibition of wild-type human partial length ULK2 (M1 to S301 residues) expressed in mammalian expression system at 10 uM by Kinomescan method relative to control
# [21] = biological target: Mitogen-activated protein kinase kinase kinase kinase 5 (Homo sapiens) (UniProt Q9Y4K4); assay: Inhibition of wild-type human partial length MAP4K5 (M1 to P297 residues) expressed in bacterial expression system at 10 uM by Kinomescan method relative to control
# [22] = biological target: Receptor tyrosine-protein kinase erbB-4 (Homo sapiens) (UniProt Q15303); assay: Inhibition of wild-type human partial length ERBB4 (L690 to K994 residues) expressed in bacterial expression system at 10 uM by Kinomescan method relative to control
# [23] = biological target: Mitogen-activated protein kinase 3 (Homo sapiens) (UniProt P27361); assay: Inhibition of wild-type human full length ERK1 (M1 to P379 residues) expressed in bacterial expression system at 10 uM by Kinomescan method relative to control
# [24] = biological target: Receptor tyrosine-protein kinase erbB-2 (Homo sapiens) (UniProt P04626); assay: Inhibition of wild-type human partial length ERBB2 (K646 to V1225 residues) expressed in mammalian expression system at 10 uM by Kinomescan method relative to control
# [25] = biological target: Myosin light chain kinase 2, skeletal/cardiac muscle (Homo sapiens) (UniProt Q9H1R3); assay: Inhibition of wild-type human partial length MYLK2 (D258 to K570 residues) expressed in bacterial expression system at 10 uM by Kinomescan method relative to control
# [26] = biological target: Rho-associated protein kinase 1 (Homo sapiens) (UniProt Q13464); assay: Inhibition of wild-type human partial length ROCK1 (M1 to R415 residues) expressed in mammalian expression system at 10 uM by Kinomescan method relative to control
# [27] = biological target: Myosin light chain kinase (Homo sapiens) (UniProt Q32MK0); assay: Inhibition of wild-type human partial length MLCK (D488 to K800 residues) expressed in bacterial expression system at 10 uM by Kinomescan method relative to control
# Myosin light chain kinase (Homo sapiens), sequence (Q32MK0 whole entry, the tested form may be a part): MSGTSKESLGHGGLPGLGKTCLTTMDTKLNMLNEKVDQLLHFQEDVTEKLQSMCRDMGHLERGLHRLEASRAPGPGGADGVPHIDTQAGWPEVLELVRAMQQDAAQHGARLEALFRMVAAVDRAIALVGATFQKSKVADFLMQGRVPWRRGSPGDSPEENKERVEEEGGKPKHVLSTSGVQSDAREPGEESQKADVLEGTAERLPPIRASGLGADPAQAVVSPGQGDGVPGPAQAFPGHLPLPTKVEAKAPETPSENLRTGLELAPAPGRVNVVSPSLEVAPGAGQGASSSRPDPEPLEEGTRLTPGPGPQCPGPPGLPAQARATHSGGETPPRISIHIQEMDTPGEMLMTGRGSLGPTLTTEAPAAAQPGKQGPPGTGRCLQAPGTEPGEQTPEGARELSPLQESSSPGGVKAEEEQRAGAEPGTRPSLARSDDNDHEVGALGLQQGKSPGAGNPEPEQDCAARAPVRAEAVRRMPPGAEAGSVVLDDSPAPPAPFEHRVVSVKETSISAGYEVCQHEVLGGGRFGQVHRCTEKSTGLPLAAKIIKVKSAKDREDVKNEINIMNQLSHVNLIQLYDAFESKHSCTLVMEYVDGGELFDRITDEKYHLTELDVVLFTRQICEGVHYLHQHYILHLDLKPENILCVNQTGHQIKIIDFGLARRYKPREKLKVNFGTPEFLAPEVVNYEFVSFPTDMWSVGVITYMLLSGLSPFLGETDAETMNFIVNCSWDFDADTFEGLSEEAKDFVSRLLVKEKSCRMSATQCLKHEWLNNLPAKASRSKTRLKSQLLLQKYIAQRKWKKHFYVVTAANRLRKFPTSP
# Mitogen-activated protein kinase kinase kinase 2 (Homo sapiens), sequence (Q9Y2U5 whole entry, the tested form may be a part): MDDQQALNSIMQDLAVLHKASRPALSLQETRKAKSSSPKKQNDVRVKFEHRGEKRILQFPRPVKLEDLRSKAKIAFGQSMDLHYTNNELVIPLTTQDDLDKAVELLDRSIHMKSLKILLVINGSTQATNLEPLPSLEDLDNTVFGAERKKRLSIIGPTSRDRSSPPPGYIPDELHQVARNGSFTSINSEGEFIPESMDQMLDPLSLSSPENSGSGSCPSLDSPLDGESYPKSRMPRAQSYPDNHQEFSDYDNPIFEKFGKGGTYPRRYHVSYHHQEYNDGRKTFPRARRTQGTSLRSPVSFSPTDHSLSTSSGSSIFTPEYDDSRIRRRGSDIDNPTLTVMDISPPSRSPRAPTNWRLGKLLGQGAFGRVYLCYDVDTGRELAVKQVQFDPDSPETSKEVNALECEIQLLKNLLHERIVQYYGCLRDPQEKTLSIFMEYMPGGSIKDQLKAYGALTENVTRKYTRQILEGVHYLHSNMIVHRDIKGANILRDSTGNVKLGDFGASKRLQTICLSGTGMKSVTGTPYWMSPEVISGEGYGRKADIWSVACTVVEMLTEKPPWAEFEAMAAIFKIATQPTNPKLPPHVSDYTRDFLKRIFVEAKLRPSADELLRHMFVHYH
# Activin receptor type-1-like (Homo sapiens), sequence (P37023 whole entry, the tested form may be a part): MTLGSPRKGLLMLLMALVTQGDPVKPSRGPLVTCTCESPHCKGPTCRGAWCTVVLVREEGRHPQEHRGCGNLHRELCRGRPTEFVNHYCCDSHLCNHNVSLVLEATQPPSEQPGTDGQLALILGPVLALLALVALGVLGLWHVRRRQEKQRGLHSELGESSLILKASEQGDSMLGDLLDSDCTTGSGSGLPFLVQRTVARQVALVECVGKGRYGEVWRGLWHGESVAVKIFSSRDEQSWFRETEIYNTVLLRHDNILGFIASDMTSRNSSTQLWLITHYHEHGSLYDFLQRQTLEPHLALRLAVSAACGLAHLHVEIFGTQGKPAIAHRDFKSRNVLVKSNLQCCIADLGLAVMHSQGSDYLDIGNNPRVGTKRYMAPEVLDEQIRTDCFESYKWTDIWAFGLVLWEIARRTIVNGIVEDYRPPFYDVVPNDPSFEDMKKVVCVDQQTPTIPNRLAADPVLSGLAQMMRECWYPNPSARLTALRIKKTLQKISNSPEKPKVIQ
# Serine/threonine-protein kinase Nek4 (Homo sapiens), sequence (P51957 whole entry, looked up, the tested form may be a part): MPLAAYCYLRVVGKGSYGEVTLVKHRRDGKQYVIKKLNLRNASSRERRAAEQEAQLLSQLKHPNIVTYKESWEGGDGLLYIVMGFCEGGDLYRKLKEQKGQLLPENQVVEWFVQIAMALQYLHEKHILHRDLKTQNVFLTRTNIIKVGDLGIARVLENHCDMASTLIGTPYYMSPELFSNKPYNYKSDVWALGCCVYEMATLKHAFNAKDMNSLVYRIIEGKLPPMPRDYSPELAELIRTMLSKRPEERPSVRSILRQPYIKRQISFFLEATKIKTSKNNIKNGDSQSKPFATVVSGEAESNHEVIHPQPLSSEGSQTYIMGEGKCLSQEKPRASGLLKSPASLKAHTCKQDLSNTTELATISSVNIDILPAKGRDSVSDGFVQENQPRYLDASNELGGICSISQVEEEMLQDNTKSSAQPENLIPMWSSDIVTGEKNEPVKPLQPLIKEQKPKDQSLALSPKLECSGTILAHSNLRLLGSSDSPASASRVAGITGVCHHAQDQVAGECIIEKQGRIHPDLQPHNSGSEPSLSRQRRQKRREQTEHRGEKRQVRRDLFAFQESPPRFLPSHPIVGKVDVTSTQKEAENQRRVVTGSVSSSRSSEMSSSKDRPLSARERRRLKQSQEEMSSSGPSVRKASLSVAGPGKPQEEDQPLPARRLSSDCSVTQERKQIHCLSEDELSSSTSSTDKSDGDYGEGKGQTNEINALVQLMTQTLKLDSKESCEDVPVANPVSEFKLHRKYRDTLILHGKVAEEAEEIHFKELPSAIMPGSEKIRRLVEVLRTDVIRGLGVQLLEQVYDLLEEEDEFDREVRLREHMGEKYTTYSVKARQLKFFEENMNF
# Mitogen-activated protein kinase kinase kinase kinase 5 (Homo sapiens), sequence (Q9Y4K4 whole entry, looked up, the tested form may be a part): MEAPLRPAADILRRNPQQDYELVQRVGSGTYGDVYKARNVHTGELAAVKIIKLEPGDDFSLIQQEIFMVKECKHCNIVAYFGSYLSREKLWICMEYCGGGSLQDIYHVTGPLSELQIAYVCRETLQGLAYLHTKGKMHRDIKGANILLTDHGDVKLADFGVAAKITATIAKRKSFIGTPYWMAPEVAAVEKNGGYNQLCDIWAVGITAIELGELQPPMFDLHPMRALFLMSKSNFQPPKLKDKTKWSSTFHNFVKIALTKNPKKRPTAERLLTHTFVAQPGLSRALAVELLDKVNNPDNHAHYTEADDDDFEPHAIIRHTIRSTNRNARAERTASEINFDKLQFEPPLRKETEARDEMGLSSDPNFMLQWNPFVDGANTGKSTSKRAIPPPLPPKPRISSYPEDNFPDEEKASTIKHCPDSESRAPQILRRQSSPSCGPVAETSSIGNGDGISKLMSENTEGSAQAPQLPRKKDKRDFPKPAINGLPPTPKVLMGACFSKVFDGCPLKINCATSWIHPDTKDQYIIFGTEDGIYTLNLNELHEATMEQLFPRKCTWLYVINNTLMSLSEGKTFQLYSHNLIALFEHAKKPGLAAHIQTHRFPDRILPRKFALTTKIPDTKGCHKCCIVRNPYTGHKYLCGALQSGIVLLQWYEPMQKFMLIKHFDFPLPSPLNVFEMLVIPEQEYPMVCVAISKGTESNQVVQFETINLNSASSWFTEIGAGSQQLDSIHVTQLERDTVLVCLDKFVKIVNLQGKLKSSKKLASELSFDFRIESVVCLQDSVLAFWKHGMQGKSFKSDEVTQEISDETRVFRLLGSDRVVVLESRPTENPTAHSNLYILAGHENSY
# Tyrosine-protein kinase JAK2 (Homo sapiens), sequence (O60674 whole entry, the tested form may be a part): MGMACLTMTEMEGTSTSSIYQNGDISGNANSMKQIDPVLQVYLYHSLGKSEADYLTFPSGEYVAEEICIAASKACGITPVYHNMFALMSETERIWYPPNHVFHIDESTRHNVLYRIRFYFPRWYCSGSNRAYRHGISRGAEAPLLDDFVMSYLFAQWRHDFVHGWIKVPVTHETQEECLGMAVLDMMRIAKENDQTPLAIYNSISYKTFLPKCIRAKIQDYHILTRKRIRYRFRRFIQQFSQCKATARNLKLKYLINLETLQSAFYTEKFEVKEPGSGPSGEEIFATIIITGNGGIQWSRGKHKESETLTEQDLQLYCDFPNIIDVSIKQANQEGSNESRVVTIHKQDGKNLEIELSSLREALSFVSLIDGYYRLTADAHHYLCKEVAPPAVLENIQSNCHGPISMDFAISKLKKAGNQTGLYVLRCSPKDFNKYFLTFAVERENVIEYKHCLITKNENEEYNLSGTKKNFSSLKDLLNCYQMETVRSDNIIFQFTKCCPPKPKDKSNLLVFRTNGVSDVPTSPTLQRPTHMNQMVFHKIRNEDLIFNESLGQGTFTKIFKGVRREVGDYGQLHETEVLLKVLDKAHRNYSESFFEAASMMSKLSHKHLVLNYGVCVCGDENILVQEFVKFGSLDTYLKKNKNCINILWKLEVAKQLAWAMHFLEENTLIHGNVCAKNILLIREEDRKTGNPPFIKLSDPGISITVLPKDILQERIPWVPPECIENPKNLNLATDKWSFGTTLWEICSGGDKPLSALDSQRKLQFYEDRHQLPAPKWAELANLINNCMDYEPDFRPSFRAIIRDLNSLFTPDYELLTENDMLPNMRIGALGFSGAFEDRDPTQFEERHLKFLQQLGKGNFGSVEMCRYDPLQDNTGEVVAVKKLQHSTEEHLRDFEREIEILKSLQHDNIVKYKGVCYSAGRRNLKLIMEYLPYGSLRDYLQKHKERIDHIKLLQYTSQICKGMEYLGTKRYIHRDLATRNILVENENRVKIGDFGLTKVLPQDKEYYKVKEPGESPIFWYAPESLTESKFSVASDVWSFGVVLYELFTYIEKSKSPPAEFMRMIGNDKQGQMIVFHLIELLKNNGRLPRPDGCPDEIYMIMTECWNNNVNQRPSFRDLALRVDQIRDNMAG
smiles,measurement,setting,value
O=C(Nc1cccc([C@@H]2CN(c3ncnc4[nH]ccc34)CCN2CCO)c1)Nc1c(F)cccc1N1CCCC1,inhibition,[1],100%
same,inhibition,[2],75%
same,inhibition,[3],9.6%
same,inhibition,[4],97%
same,inhibition,[5],64%
same,inhibition,[6],40%
same,inhibition,[7],86%
same,inhibition,[8],87%
same,inhibition,[9],96%
same,inhibition,[10],100%
O=C(Nc1cccc([C@H]2CCCN(c3ncnc4[nH]ccc34)C2)c1)Nc1ccccc1N1CCCC1,inhibition,[11],38%
same,inhibition,[12],59%
same,inhibition,[13],0%
same,inhibition,[14],100%
same,inhibition,[15],29%
same,inhibition,[16],99%
same,inhibition,[17],83%
same,inhibition,[18],100%
same,inhibition,[19],0.6%
same,inhibition,[20],50%
same,inhibition,[21],30%
same,inhibition,[22],88%
same,inhibition,[23],100%
same,inhibition,[24],55%
same,inhibition,[25],58%
same,inhibition,[26],46%
same,inhibition,[27],100%
